Patent publication US11833204B2, “Visible light-activatable nanoparticles for cancer immunotherapy and use thereof” (KOREA INSTITUTE OF SCIENCE AND TECHNOLOGY, priority 2021, dated 2023)

Columns and labels:
[1] = Size analysis of LT-NPs by dynamic light scattering; type: physicochemical; settings: 1 mg/mL in saline, DLS
Description: The self-assembled nanoparticles (LT-NPs) prepared in Example 1 were diluted with saline to a concentration of 1 mg/mL and their particle size was analyzed by dynamic light scattering (DLS; Zetasizer Nano ZS, Malvern Instruments).

[2] = Morphological analysis by transmission electron microscopy in saline; type: physicochemical; settings: 1 mg in 1 mL physiological saline
Description: (§1) The self-assembled nanoparticles (LT-NPs) prepared in Example 1, doxorubicin (DOX), and verteporfin (VPF) were used as samples. 1 mg of each sample was mixed with physiological saline (1 mL). […] The self-assembled nanoparticles (LT-NPs) were mixed with cathepsin B (Cat-B) protease (50 μg/mL). The mixture was allowed to react for 24 h.

[3] = molecular target: cathepsin B (Homo sapiens, UniProt P07858); assay: Cleavage of LT-NPs by cathepsin B (RP-HPLC, fluorescence, TEM); type: biochemical
Description: as §1
In this example, the activation of the self-assembled nanoparticles (LT-NPs) by cathepsin B (Cat-B) was determined. To this end, an experimental sample and a comparative sample were prepared and allowed to react in an incubator at 37° C. Specific cleavages by cathepsin B were evaluated at reaction times of 0, 9, and 24 h by reversed phase high-performance liquid chromatography (RT-HPLC).
Experimental sample (Cat-B): The self-assembled nanoparticles (LT-NPs) (10 μM) prepared in Example 1 were mixed with a 2-(N-morpholine)-ethanesulphonic acid (MES) buffer (200 μL) containing cathepsin B (10 μg).
Comparative sample (Cat-B+inhibitor): The self-assembled nanoparticles (LT-NPs) (10 μM) prepared in Example 1 were mixed with a 2-(N-morpholine)-ethanesulphonic acid (MES) buffer (200 μL) containing cathepsin B (10 μg) and a cathepsin B inhibitor (Z-FA-FMK, 50 μM).

[4] = system: CT26 cells; assay: Intracellular behaviour in CT26 cancer cells (confocal microscopy); type: cell-based
Description: (§2) The following experiment was conducted to evaluate the intracellular behaviors of the self-assembled nanoparticles (LT-NPs). First, 1×10^5 CT26 cells or H9C2 cells were plated in a 35 mm cell culture dish, treated with the self-assembled nanoparticles (LT-NPs, 5 μM) prepared in Example 1, and cultured for 24 h. Thereafter, cells were washed with Dulbecco's PBS (DPBS), fixed in 4% formaldehyde for 10 min, stained with 4′,6-diamidino-2-phenylindole (DAPI) for 5 min, and analyzed with a Leica TCS SP8 confocal microscope (Leica Microsystems GmbH).

[5] = system: H9C2 cells; assay: Intracellular behaviour in H9C2 cardiomyocytes (confocal microscopy); type: cell-based; settings: H9C2, 5 μM, 24 h
Description: as §2

[6] = system: CT26 cells; assay: In vivo behaviour and tumor accumulation in CT26 tumor animal model; parameters: species or system mice; settings: 5 mg/kg i.v.
Description: (§3) […] nude mice (6 weeks old, 20-25 g, male) bred in a sterile environment were used. The mice were acclimated for 2 weeks prior to starting the experiment. The mice had ad libitum access to food and water in cages maintained at a temperature of 22±2° C. and a humidity of 40-60% on a 12 h light and dark cycle during the experiment. All experimental procedures were performed according to the guidelines of the Institutional Animal Care and Use Committee of the Korea Institute of Science and Technology.
Colon cancer was induced in the male nude mice. To this end, 1×10^6 CT26 cells were subcutaneously inoculated into the left thigh of each mouse to construct a tumor animal model. Thereafter, the tumor was allowed to grow until its volume reached ˜200-250 mm^3 prior to the experiment. For sample administration, the mice were randomly divided into 4 groups, 24 animals per group. Verteporfin (VPF) was intravenously administered at a concentration of 5 mg/kg (“VPF-administered group”) and the self-assembled nanoparticles (LT-NPs) were intravenously administered at a concentration of 5 mg/kg (“LT-NPs-administered group”).
The in vivo behaviors of the drugs in the administered groups were evaluated by near-infrared imaging using an IVIS Lumina system for 0.5-9 h.

[7] = system: CT26 cells; assay: Anticancer effect in CT26 tumor animal model; type: in vivo, mice
Description: as §3
Colon cancer was induced in the male nude mice. To this end, 1×10^6 CT26 cells were subcutaneously inoculated into the left thigh of each mouse to construct a tumor animal model. Thereafter, the tumor was allowed to grow until its volume reached ˜200-250 mm^3 prior to the experiment. For sample administration, the mice were randomly divided into 4 groups, 24 animals per group. In a control (“Con”), animals were administered intravenously PBS at a concentration of 5 mg/kg twice on days 0 and 2. In a DOX-administered group, animals were administered intravenously doxorubicin (DOX) at a concentration of 5 mg/kg twice on days 0 and 2. In a VPF(+L)-administered group, animals were administered intravenously verteporfin (VPF) at a concentration of 5 mg/kg twice on days 0 and 2 and exposed by irradiation with visible light using a 671 nm laser at 40 mW for 250 sec. In an LT-NPs(-L)-administered group, animals were administered intravenously the self-assembled nanoparticles (LT-NPs) at a concentration of 5 mg/kg twice on days 0 and 2. In an LT-NPs(+L)-administered group, animals were administered intravenously the self-assembled nanoparticles (LT-NPs) at a concentration of 5 mg/kg twice on days 0 and 2 and exposed by irradiation with visible light using a 671 nm laser at 40 mW for 250 sec.
Changes in tumor volume (maximum diameter x minimum diameter^2×0.53) in the groups were measured every 2 days for a total of 0-25 days. After 7 days, blood was harvested from each group and analyzed for HSP70, HMGB1, immunogenic apoptotic cancer cells, mature dendritic cells, activated T cells, and IFN-γ levels.
9 h after drug administration, cancer tissues were excised from each group. Each cancer tissue was sectioned to a thickness of 10 μm, washed twice with DBPS, and stained with DAPI in the dark for 15 min. The section was imaged using a Leica TCS SP8 focal microscope (Leica Microsystems GmbH).
Immune cells infiltrated into cancer cells in each group were analyzed. After 7 days, animals in each group were euthanized under anesthesia and cancer tissues were collected. Monocytes were isolated using a tumor dissociation kit (Miltenyi Biotec) according to the manufacturer's protocol. Next, the monocytes were incubated with Fc block for 5 min to avoid non-specific binding and stained with antibodies for 1 h to determine the proportions of i) immunogenic apoptotic cancer cells (CD45 and CRT staining), ii) activated T cells (CD45, CD3, and CD8 staining), and iii) mature dendritic cells (CD11c, CD40, and CD86 staining) in the cancer tissues.

[8] = after 7 days, +L, Western blotting, versus other groups

In the case of C=CC1=C(C)/C2=C/C3=NC(Cc4[nH]c(c(CCCCC(=O)OC)c4C)CC4N=C(CC1N2)C(C)=C4CCC(=O)N[C@H](Cc1ccccc1)C(=O)N[C@@H](CCCNC(=N)N)C(=O)N[C@H](CCCNC(=N)N)C(=O)NCC(=O)NC1C[C@@H](OC2C[C@](O)(C(=O)CO)Cc4c(O)c5c(c(O)c42)C(=O)c2c(OC)cccc2C5=O)O[C@@H](C)[C@H]1O)[C@@]1(C)C3=CC=C(C(=O)OC)[C@@H]1C(=O)OC (some centres unmarked) [LT-NPs, VPF-FRRG(SEQ ID NO: 1)-DOX], the average particle diameter [1] is reported as 87 nm, the “morphology in physiological saline (TEM)” value [2] is reported as “dispersed without aggregation in saline” and the “cleavage by cathepsin B” value ([3]; 10 μM, cathepsin B 10 μg in MES buffer, 37° C., RP-HPLC and fluorescence) is reported as “cleaved by cathepsin B to release doxorubicin and the photosensitizer”. The “morphology after reaction with cathepsin B (TEM)” value ([3]; Cat-B 50 μg/mL, 24 h) was “degraded by cathepsin B”, the “intracellular cleavage into doxorubicin and verteporfin” value ([4]; CT26, 5 μM, 24 h) was “cleaved specifically to cancer cells” and the presence in cells ([4]; CT26, 5 μM, 24 h) was “observed in both cardiomyocytes (H9C2) and cancer cells (CT26)”. For the same compound, the “intracellular degradation with cathepsin B inhibitor” value ([4]; CT26 treated with cathepsin B inhibitor) was “not degraded and remained stable in the cytoplasm”, the presence in cells [5] was “observed in both cardiomyocytes (H9C2) and cancer cells (CT26)” and the “state in normal cells” value [5] was “in a stable state in normal cells”. The “accumulation in cancer cells (histological analysis)” value [6] was “accumulated in cancer cells with significantly higher efficacy than the conventional anticancer drug”, the “fluorescence intensity in cancer cells (near-infrared imaging)” value ([6]; 0.5-9 h, IVIS Lumina) was “higher than those of Group 1 treated with verteporfin” and the “fluorescence intensity in cancer cells (drug accumulated in tissues)” value ([6]; liver, lung, spleen, kidney, heart, tumor) was “higher than those of Group 1 treated with verteporfin”. The “number of animals cured” value ([7]; 5 mg/kg i.v. days 0 and 2, +L) was 3, the “growth of cancer cells (tumor volume)” value ([7]; 5 mg/kg i.v. days 0 and 2, +L (671 nm laser 40 mW 250 sec), versus other groups) was “significantly reduced” and the “proportion of activated T cells in cancer tissues” value ([7]; after 7 days, +L) was “significantly higher than those in the other groups”. For the same compound, the “proportion of immunogenic apoptotic cancer cells in cancer tissues” value ([7]; after 7 days, +L) was “significantly higher than those in the other groups”, the “proportion of mature dendritic cells in cancer tissues” value ([7]; after 7 days, +L) was “significantly higher than those in the other groups” and the “expression level of HMGB1” value [7, 8] was “significantly high”. For the same compound, the “expression level of HSP70” value [7, 8] was “significantly high” and the “degree of apoptosis in cancer cells” value ([7]; after 7 days, +L, versus other groups) was “significantly high”.
